Data reported in patent US20230364084A1, “METHODS FOR PREVENTING OR TREATING CONDITIONS RELATED TO PIKFYVE ACTIVITY” (The Regents of the University of Michigan, priority 2020, published 2023).

Legend:
[1] = test system: MDA-PCa-146-10 neuroendocrine prostate cancer PDX; test: MDA-PCa-146-10 patient-derived xenograft; assay type: in vivo, mouse; conditions: 30 mg/kg
Description: The University of Texas M.D. Anderson Cancer Center (MDACC) patient-derived xenografts (PDX) series has been previously described^62-64. PDXs were derived from men with CRPC undergoing palliative resections using described protocols^65,66. MDA-PCa-146-12 and 146-10 PDX were derived from a patient initially diagnosed with Gleason 3+4=7 prostate adenocarcinoma with an initial PSA of 10.7 ng/ml. […] PDXs were maintained in male SCID mice by surgically implanting 2 mm^3 tumors coated with 100% Matrigel to both flanks of mice. Once tumors reached 100-200 mm^3 in size, mice were randomized and divided into different treatment groups receiving either 30 mg/kg ESK981 or vehicle (ORA-PLUS) by oral gavage 5 days per week.

PIKfyve = PIKfyve (Homo sapiens, UniProt Q9Y2I7); test: cellular thermal shift assay; assay type: cell-based; design: endogenous in cells; host or cells: VCaP cells; conditions: VCaP cells, 1 μM, 2 hours
Description: The ability of compounds to interact with, and thereby stabilize the target in intact cells, was analyzed essentially as previously described^60,61. The target engagement of ESK981 to PIKfyve was performed in VCaP cells. Cells were treated with DMSO, ESK981 (1 μM), or apilimod (1 μM) for 2 hours at 37° C. and 5% CO2, and 1×10^6 single cell suspensions were diluted into 50 μl of PBS containing protease inhibitor. Cell suspensions were then incubated in a PCR thermal cycler at various temperatures for 2 cycles of 3 minutes heating followed by 3 minutes cooling at room temperature. Cells were lysed by three cycles of freeze-thawing using liquid nitrogen. 20 μl of the soluble fraction of cell lysates were analyzed by western blot.

PIK3CA = biological target: T1, PIK3CA (Homo sapiens, UniProt P42336); test: kinase dissociation constant analysis (KdELECT); assay type: binding; conditions: 11-point dose-response, duplicate
T1 construct: purchased DiscoveRX (KdELECT)
Description: (§1) Quantitative binding constants (Kd) of ESK981 to PIKfyve, PIP5K1A, PIP5K1C, and PIK3CA were generated using KdELECT® platform (DiscoveRX). An 11-point dose-response of ESK981 (0.05-3000 nM) was used, and the experiment was performed in duplicate. Detailed information is described on the DiscoveRX website (www.discoverx.com).

PIP5K1C = biological target: T2, PIP5K1C (Homo sapiens, UniProt O60331); test: kinase dissociation constant analysis (KdELECT); assay type: binding; conditions: 11-point dose-response, duplicate
T2 construct: purchased DiscoveRX (KdELECT)
Description: as §1

PIP5K1A = biological target: T3, PIP5K1A (Homo sapiens, UniProt Q99755); test: kinase dissociation constant analysis (KdELECT); assay type: binding; conditions: 11-point dose-response, duplicate
T3 construct: purchased DiscoveRX (KdELECT)
Description: as §1

[2] = test system: LC3-II in prostate cancer cell lines; test: LC3 lipidation western blot; assay type: cell-based, human
Description: Cell lysates were harvested in Pierce RIPA Lysis buffer (Thermo Scientific) containing protease inhibitor cocktail tablets (Roche) and phosphatase inhibitor cocktail (Millipore). Protein concentration was measured using the DC Protein Assay (Bio-Rad) to ensure an equal amount of protein was loaded onto a gel. The denatured lysates were separated on NuPage 4-12% Bis-Tris Midi Protein gels (Novex) and transferred to 0.45-μm PVDF transfer membrane (Immobilon) using a TransBlot Turbo dry transfer machine (Bio-Rad). The membrane was incubated in blocking buffer (5% non-fat dry milk, Tris-buffered saline with 0.1% Tween 20) for 1 hour at room temperature. The membrane was then incubated with the listed antibodies for 1 hour at room temperature, followed by overnight incubation at 4° C. Chemiluminescent detection using ECL Prime (Amersham) and HyBlot CL autoradiography film (Denville Scientific) was used to visualize the blots. Antibodies used in the immunoblotting assays were against ATG5 (Cat No. 12994S, Cell Signaling Technology), ATG7 (Cat No. 8558S, Cell Signaling Technology), ULK1 (Cat No. 8054S, Cell Signaling Technology), Beclin1 (Cat No. 4122S, Cell Signaling Technology), FIP200 (Cat No. 12436S, Cell Signaling Technology), LC3A/B (Cat No. 127415, Cell Signaling Technology), PIKfyve (Cat No. AF7885, R&D Systems), and GAPDH (Cat No. 3683S, Cell Signaling Technology).

[3] = test system: castration-resistant VCaP tumors; test: castration-resistant VCaP xenograft mouse model; assay type: in vivo; conditions: 30 or 60 mg/kg
Description: Four- to six-week old male CB17 severe combined immunodeficiency (SCID) mice were procured from the University of Michigan breeding colony. Subcutaneous tumors were established at both sides of the dorsal flank of mice. Tumors were measured at least biweekly using digital calipers following the formula (π/6) (L×W2), where L=length and W=width of the tumor. At the end of the studies, mice were sacrificed and tumors extracted and weighed. The University of Michigan University Committee on the Use and Care of Animals (UCUCA) approved all in vivo studies. For the VCaP castration-resistant tumor model, 3×10^6 VCaP cells were injected subcutaneously into the dorsal flank on both sides of the mice in serum-free medium with 50% Matrigel (BD Biosciences). Once tumors reached a palpable stage (˜200 mm^3), tumor-bearing mice were castrated. Once tumors grew back to the pre-castration size, mice were randomized and treated with either 30 mg/kg, 60 mg/kg ESK981, or vehicle (ORA-PLUS) by oral gavage 5 days per week. For the DU145 xenograft tumor model, 1×10^6 DU145 cells were injected subcutaneously into the dorsal flank on both sides of the mice in serum-free medium with 50% Matrigel. When tumors reached ˜100 mm^3, tumor-bearing mice were randomized and treated with 30 mg/kg ESK981 or vehicle (ORA-PLUS) by oral gavage 5 days per week.

[4] = test system: advanced, relapsed, or refractory solid tumors; conditions: cited from earlier work
[5] = test system: GFP-LC3-RFP-LC3ΔG-expressing Myc-CaP cells; test: autophagic flux detection in Myc-CaP cells; assay type: cell-based, mouse; conditions: 24 hours
Description: For autophagic flux detection, 10,000 cells were plated in 96-well plates and incubated with various compounds in complete medium for 24 hours. GFP and RFP fluorescence intensities were measured on a TECAN M1000 plate reader.

[6] = test system: prostate cancer cell lines; test: cell cycle analysis; assay type: cell-based, human
Description: Cells were seeded in 6-well plates and treated with various drugs for 72 hours. Single cells were fixed with 70% ethanol, stained with propidium iodine, and cell cycle was analyzed by flow cytometry.

T2 sequence (O60331 whole entry): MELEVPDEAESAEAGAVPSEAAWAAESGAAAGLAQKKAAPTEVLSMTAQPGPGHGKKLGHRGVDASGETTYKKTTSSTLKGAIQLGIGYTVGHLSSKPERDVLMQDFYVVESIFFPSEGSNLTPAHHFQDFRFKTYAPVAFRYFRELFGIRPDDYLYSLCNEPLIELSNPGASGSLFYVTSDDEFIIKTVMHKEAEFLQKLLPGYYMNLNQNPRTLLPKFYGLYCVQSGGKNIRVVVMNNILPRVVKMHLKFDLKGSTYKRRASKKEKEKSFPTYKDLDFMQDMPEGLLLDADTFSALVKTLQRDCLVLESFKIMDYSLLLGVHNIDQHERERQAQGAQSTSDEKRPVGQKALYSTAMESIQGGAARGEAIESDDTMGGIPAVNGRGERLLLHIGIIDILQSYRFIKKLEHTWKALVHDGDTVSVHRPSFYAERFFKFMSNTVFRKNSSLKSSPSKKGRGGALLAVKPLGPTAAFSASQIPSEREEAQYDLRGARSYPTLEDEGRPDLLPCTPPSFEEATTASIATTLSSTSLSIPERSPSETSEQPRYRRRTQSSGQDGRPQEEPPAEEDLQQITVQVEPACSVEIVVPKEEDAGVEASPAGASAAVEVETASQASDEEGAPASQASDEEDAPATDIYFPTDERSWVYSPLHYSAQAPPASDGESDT
T1 sequence (P42336 whole entry): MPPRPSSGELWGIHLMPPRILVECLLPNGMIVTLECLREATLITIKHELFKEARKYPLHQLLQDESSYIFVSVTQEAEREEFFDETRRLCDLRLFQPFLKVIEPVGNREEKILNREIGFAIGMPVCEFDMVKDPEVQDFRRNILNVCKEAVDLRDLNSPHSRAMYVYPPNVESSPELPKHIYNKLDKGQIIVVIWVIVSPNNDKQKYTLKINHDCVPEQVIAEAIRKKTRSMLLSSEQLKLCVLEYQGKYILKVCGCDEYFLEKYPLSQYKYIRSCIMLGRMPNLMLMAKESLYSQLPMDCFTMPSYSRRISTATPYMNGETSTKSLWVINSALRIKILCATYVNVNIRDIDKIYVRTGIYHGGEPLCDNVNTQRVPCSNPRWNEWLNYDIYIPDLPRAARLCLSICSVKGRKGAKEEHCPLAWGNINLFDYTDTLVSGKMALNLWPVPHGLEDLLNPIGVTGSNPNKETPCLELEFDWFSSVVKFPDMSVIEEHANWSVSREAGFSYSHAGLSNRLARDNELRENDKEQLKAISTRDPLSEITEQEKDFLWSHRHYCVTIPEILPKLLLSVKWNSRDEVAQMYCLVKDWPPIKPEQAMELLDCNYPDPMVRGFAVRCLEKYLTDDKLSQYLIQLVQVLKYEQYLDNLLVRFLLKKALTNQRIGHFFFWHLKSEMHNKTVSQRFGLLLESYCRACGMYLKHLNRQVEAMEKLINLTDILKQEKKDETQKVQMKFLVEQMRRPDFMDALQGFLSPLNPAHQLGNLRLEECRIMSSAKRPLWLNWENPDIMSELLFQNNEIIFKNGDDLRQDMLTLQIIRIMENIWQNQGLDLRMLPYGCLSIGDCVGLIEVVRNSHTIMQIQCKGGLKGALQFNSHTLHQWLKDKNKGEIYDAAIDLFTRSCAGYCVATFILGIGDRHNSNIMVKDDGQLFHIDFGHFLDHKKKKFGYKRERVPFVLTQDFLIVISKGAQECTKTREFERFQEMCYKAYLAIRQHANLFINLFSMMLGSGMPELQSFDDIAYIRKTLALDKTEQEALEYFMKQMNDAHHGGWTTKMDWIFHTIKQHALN
PIKfyve, sequence (Q9Y2I7 whole entry): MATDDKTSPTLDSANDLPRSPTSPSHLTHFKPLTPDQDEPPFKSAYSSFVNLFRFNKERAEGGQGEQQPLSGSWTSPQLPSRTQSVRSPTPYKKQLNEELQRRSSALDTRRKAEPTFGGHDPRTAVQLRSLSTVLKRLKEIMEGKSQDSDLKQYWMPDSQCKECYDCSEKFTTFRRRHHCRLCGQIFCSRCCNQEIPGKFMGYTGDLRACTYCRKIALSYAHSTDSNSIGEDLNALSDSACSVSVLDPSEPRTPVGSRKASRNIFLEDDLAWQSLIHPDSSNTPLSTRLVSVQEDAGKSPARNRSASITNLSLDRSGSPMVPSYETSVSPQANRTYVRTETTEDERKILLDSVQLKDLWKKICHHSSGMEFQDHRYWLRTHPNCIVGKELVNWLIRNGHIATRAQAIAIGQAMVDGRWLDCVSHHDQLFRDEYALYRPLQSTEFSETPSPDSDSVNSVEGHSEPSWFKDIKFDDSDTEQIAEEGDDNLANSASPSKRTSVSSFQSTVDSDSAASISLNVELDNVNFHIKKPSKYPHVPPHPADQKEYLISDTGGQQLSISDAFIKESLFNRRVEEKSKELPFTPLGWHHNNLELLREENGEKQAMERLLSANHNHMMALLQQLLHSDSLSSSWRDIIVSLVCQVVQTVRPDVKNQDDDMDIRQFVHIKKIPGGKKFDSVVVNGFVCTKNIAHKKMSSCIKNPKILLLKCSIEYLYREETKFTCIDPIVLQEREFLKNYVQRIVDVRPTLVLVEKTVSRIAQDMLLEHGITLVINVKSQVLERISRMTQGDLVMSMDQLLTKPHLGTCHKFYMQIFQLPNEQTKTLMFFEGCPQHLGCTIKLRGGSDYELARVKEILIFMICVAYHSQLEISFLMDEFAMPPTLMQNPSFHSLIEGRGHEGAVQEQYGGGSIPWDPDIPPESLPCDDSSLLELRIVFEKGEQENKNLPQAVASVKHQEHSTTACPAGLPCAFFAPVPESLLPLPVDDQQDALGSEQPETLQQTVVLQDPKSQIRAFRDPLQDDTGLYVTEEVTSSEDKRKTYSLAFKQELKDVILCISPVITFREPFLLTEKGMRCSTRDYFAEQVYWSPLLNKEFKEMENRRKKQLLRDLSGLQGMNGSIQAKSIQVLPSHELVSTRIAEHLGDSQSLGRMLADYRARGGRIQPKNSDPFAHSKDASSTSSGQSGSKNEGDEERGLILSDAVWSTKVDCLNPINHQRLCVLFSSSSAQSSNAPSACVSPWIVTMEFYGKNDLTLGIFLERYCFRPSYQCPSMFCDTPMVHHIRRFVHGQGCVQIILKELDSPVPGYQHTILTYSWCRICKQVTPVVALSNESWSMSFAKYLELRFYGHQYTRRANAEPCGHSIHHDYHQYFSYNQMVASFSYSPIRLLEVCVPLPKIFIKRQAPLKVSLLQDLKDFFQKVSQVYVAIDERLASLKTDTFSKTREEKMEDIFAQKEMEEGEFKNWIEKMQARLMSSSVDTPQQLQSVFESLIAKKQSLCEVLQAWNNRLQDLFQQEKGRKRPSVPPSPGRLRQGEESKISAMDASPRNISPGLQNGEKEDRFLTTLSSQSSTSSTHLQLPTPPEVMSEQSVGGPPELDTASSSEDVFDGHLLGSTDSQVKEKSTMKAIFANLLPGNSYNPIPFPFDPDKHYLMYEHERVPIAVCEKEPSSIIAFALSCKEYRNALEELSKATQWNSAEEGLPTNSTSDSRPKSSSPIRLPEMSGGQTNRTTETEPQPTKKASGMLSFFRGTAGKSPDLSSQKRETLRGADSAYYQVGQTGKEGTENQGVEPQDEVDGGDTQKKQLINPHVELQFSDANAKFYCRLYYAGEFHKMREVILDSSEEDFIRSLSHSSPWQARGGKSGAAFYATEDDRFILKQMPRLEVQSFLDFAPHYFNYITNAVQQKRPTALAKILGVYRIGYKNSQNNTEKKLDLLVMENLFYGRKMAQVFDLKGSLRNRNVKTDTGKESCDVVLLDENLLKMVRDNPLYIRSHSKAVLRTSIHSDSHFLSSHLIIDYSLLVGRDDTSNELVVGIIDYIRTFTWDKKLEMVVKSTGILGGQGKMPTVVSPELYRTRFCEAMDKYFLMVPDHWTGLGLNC
T3 sequence (Q99755 whole entry): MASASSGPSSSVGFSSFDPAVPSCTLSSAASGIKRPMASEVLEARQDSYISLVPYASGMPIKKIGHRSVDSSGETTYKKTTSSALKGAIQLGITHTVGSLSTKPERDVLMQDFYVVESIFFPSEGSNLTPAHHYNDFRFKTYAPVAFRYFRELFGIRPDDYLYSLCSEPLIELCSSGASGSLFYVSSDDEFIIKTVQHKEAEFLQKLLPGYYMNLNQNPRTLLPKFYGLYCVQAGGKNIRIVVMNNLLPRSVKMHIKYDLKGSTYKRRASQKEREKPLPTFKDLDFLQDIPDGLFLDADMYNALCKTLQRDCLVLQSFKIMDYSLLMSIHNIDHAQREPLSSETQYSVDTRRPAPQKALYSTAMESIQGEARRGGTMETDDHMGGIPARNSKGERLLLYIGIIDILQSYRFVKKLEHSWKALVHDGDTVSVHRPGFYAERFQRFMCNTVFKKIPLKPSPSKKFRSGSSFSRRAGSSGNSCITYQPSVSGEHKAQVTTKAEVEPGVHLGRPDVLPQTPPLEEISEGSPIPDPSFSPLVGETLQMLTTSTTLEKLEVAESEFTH

For `CC(C)Cn1c2ccc(Nc3ncccn3)cc2c2c3c(c4c(c21)CCc1nn(C)cc1-4)C(=O)NC3` [ESK981, 13-isobutyl-4-methyl-10-(pyrimidin-2-ylamino)-1,2,4,7,8,13-hexahydro-6H-indazolo[5,4-a]pyrrolo[3,4-c]carbazol-6-one], the tumor weights ([1]; day 21) was “significant decreases in tumor weights”, the tumor growth ([1]; oral gavage 5 days per week, SCID mice) was “Significant inhibition of tumor growth” and the “cellular target engagement on PIKfyve” value (PIKfyve) was “confirmed”. The Kd (PIK3CA) was over 10 µM, the Kd (PIP5K1C) was 0.21 µM and the Kd (PIP5K1A) was 0.23 µM. For the same compound, the “time to evidence of increase in LC3-II” value ([2]; VCaP cells, 300 nM) was “within three hours”, the “total level of LC3 lipidation” value ([2]; numerous prostate cancer cell lines, 24 hours, dose-dependent) was “increase in the total level of LC3 lipidation” and the “cell proliferation by Ki67 IHC” value ([3]; five days of treatment) was “dose-dependent reductions”. For the same compound, the tumor weights ([3]; oral gavage) was “dose-dependent reductions”, the “tumor growth of VCaP xenografts” value ([3]; oral gavage, castrated SCID mice, vs vehicle) was “significant dose-dependent growth inhibiton” and the “evaluable patients achieving stable disease” value ([4]; measured at ≥6 weeks of ESK981 treatment) was 51%. For the same compound, the “safety, pharmacokinetic and pharmacodynamic profiles” value ([4]; patients with advanced, relapsed, or refractory solid tumors) was “favorable safety, pharmacokinetic, and pharmacodynamic profiles”, the autophagic flux [5] was “inhibited” and the cell cycle arrest ([6]; 72 hours, increasing concentrations) was “dose-dependent G2/M phase arrest”. For the same compound, the “G2/M arrest compared with other inhibitors” value ([6]; VCaP cells, ESK981 100 nM vs cabozantinib 5 μM, crizotinib 3 μM, enzalutamide 10 μM) was “greater G2/M arrest potential at a lower concentration”.
